According to patent US9833497B2, “Human originated EGF domain proteins and use of the same” (CHENGDU SOURCEBIO LIMITED-LIABILITY COMPANY, priority 2013, dated 2017):

What was measured:
Type in all cases: cell-based
Enterobacter cloacae = experiment: MIC against Gram-negative bacteria: Enterobacter cloacae; settings: Enterobacter cloacae; 96-well plate, 5×10^5 CFU/mL, 37° C., 10 h
Protocol: (§1) 1. Gram-negative bacteria, such as E. coli BL21, Pseudomonas aeruginosa, Klebsiella pneumonia, Enterobacter cloacae, Aeromonas hydrophila, Citrobacter diversus, Moraxella catarrhalis, Proteus mirabilis, Proteus vulgaris, Serratia marcescens, etc were streaked on solid LB medium and cultured respectively. Then, typical clones were picked, inoculated into common liquid LB medium respectively, and cultured at 37° C. with shaking at 185 rpm until the McFarland specific turbidity was 0.5. The bacterial culture of each of Gram-negative bacteria was centrifuged at 4000×g for 3 min, the supernatant was discarded, and the thalli were resuspended with fresh LB medium.
(§2) 2. The above-mentioned bacterial suspensions were diluted and inoculated into 96-well plates with the final concentration of the bacterial suspension being 5×10^5 CFU/mL per well.
(§3) 3. Each of the purified human-originated EGF domain proteins (PRT1 to PRT1498 in Table 1) was added to each of the above wells and subjected to two-fold serial dilution in concentration. Three parallel wells were set up for each concentration in the gradient.
(§4) 4. The above-mentioned 96-well plates were placed and cultured at 37° C. in shaking incubator shaking at 175 rpm. […] The minimal inhibitory concentration MIC is defined as the lowest concentration of the recombinant protein at which there is no growth of the bacteria.

Aeromonas hydrophila = experiment: MIC against Gram-negative bacteria: Aeromonas hydrophila; settings: Aeromonas hydrophila; 96-well plate, 5×10^5 CFU/mL, 37° C., 10 h
Protocol: as §1, §2, §3, §4

Proteus mirabilis = experiment: MIC against Gram-negative bacteria: Proteus mirabilis; settings: Proteus mirabilis; 96-well plate, 5×10^5 CFU/mL, 37° C., 10 h
Protocol: as §1, §2, §3, §4

Citrobacter diversus = experiment: MIC against Gram-negative bacteria: Citrobacter diversus; settings: Citrobacter diversus; 96-well plate, 5×10^5 CFU/mL, 37° C., 10 h
Protocol: as §1, §2, §3, §4

Proteus vulgaris = experiment: MIC against Gram-negative bacteria: Proteus vulgaris; settings: Proteus vulgaris; 96-well plate, 5×10^5 CFU/mL, 37° C., 10 h
Protocol: as §1, §2, §3, §4

E. coli DH5α = experiment: Antibacterial activity: MIC and growth curve against E. coli DH5α in 96-well plate; settings: minimal inhibitory concentration against E. coli DH5α; 96-well plate, 5×10^5 CFU/mL, 37° C., judged after 8 h
Protocol: 1. E. coli DH5α was exemplified. E. coli DH5α was streaked and cultured on LB solid medium. Then, a typical clone was picked and inoculated into common LB liquid medium, cultured at 37° C. with shaking at 185 rpm until the logarithmic growth phase was reached (OD600 of about 0.5). The bacterial culture was centrifuged at 4000×g for 3 min, the supernatant was discarded, and the thalli were resuspended with fresh LB medium.
2. The above-mentioned bacterial suspension was diluted and inoculated into a 96-well plate with the total volume of 100 μL per well and a bacterial count of 5×10^5 CFU/mL.
3. The recombinant protein hF VII-EGF1 was added to the above-mentioned wells with the final protein concentration in the well of the highest protein concentration being 50 μg/mL. Basing on this final concentration, a two-fold serial dilution was performed till a protein concentration gradient consisting of 50, 25, and 12.5 μg/mL was set up. Three parallel wells were set up for each concentration in the gradient.
as §4, with “plate was” for “plates were”, “rpm. Samples were taken every 30 min, the absorbance values were determined at 600 nm wavelength under a ultra violet spectrophotometer, and an inhibition curve was plotted.” for “rpm.”
According to the experimental procedures in Example 14, the minimal inhibitory concentrations (MIC, μg/mL) of the other human-originated EGF domain proteins (PRT2 to PRT1498 in Table 1) for E. coli DH5α were determined.

Serratia marcescens = experiment: MIC against Gram-negative bacteria: Serratia marcescens; settings: Serratia marcescens; 96-well plate, 5×10^5 CFU/mL, 37° C., 10 h
Protocol: as §1, §2, §3, §4

Klebsiella pneumonia = experiment: MIC against Gram-negative bacteria: Klebsiella pneumonia; settings: Klebsiella pneumonia; 96-well plate, 5×10^5 CFU/mL, 37° C., 10 h
Protocol: as §1, §2, §3, §4

E. coli BL21 = experiment: MIC against Gram-negative bacteria: E. coli BL21; settings: E. coli BL21; 96-well plate, 5×10^5 CFU/mL, 37° C., 10 h
Protocol: as §1, §2, §3, §4

Pseudomonas aeruginosa = experiment: MIC against Gram-negative bacteria: Pseudomonas aeruginosa; settings: Pseudomonas aeruginosa; 96-well plate, 5×10^5 CFU/mL, 37° C., 10 h
Protocol: as §1, §2, §3, §4

Moraxella catarrhalis = experiment: MIC against Gram-negative bacteria: Moraxella catarrhalis; settings: Moraxella catarrhalis; 96-well plate, 5×10^5 CFU/mL, 37° C., 10 h
Protocol: as §1, §2, §3, §4

| Substance | MIC (μg/mL) E. cloacae (Enterobacter cloacae) [µg/mL] | MIC (μg/mL) A. hydrophila (Aeromonas hydrophila) [µg/mL] | MIC (μg/mL) P. mirabilis (Proteus mirabilis) [µg/mL] | MIC (μg/mL) C. diversus (Citrobacter diversus) [µg/mL] | MIC (μg/mL) P. vulgaris (Proteus vulgaris) [µg/mL] | MIC (E. coli DH5α) [µg/mL] | MIC (μg/mL) S. marcescens (Serratia marcescens) [µg/mL] | MIC (μg/mL) K. pneumonia (Klebsiella pneumonia) [µg/mL] | MIC (μg/mL) E. coli BL21 (E. coli BL21) [µg/mL] | MIC (μg/mL) P. aeruginosa (Pseudomonas aeruginosa) [µg/mL] | MIC (μg/mL) M. catarrhalis (Moraxella catarrhalis) [µg/mL] |
| --- | --- | --- | --- | --- | --- | --- | --- | --- | --- | --- | --- |
| PRT19 (CSCDPQGAVRDDCEQMTGLCSCKPGVAGPKCGQCPDGRALGPAGCEA; listed as Homo sapiens) | 50 | 12.5 | 12.5 | 25 | 25 | 25 | 50 | 25 | 12.5 | 12.5 | 50 |
| PRT20 (QKNLCNNTGDPEMCPENGSCVPDGPGLLQCVCADGFHGYKCM; listed as Homo sapiens) | 12.5 | 50 | 50 | 25 | 25 | 12.5 | 12.5 | 25 | 25 | 50 | 12.5 |
| PRT21 (NCATPCTEGCECNQGFVLSTSQCV; listed as Homo sapiens) | 50 | 12.5 | 50 | 25 | 25 | 25 | 50 | 25 | 50 | 12.5 | 12.5 |
| PRT22 (WCEDNGGCEQICTSRVDGPLCSCVTGTLQEDGKSCR; listed as Homo sapiens) | 12.5 | 25 | 12.5 | 12.5 | 12.5 | 50 | 25 | 12.5 | 50 | 25 | 25 |
| PRT23 (KKNPCNAEFQNFCIHGECKYIEHLEAVTCKCQQEYFGERCG; listed as Homo sapiens) | 25 | 12.5 | 50 | 50 | 25 | 12.5 | 50 | 12.5 | 25 | 12.5 | 25 |
| PRT24 (ELDLCYSNPCRNGGACARREGGYTCVCRPRFTGEDCE; listed as Homo sapiens) | 12.5 | 12.5 | 25 | 25 | 12.5 | 12.5 | 25 | 25 | 25 | 12.5 | 12.5 |
